The results in this text go back to publication PMC11648915, “Identification and development of TRPM4 antagonists to counteract neuronal excitotoxicity” (iScience, 2024).

The test system of data set [1] is broad panel of receptors, enzymes, and ion channels. The experiment in a line: SafetyScreen44 in vitro pharmacology panel (whole panel). In kind it is binding. As to conditions: SafetyScreen44, 5 μM; active = inhibition above 50%. As for the experimental part: We next used in vitro assays to test absorption, distribution, metabolism, excretion and toxicity (ADMET) parameters for selected compounds. We assessed compound absorption using parallel artificial membrane permeability (PAMPA) and Caco-2 cell permeability assays (cut-off criterion >2 × 10^−6 cm s^−1). Compound toxicity was evaluated by measuring inhibition of cytochrome P450 enzymes (CYP), the potassium channel human Ether-a-go-go Related Gene (hERG), and TRPM5, with all parameters meeting acceptable criteria. […] To assess potential off-target activity of our compounds that could be relevant for safety in humans, we conducted comprehensive in vitro pharmacology using the commercially available and widely used SafetyScreen44 interaction panel[60] covering eight protein families.
For in vitro pharmacological profiling and determination of off target effects compound were screened at a 5 μM in duplicate for their potential to bind to a broad panel of receptors, enzymes, and ion channels on a commercially available platform (Safetyscreen 44 Panel; Eurofins Cerep, Le Bois l'Evêque, B.P. 30001, 86 600 Celle l'Evescault, France), Study ID FR095-0009609).

A short description of data set [2]: In vivo pharmacokinetics after single i.p. or i.v. dose. As to conditions: female, C57BL/6J, mouse. Here is the method: Next, to assess in vivo availability of the Series 1–3 compounds, we evaluated drug metabolism and pharmacokinetics (DMPK). We measured compound concentrations in plasma, heart, and brain at several time points after intraperitoneal (i.p.) or intravenous (i.v.) single-dose injections.
Half-life and bioavailability were calculated by noncompartmental analysis using the R package PK[84] (v1.3-6).

The target in the next data set is T1, mouse TRPM4 (Mus musculus, UniProt Q7TN37).
T1 construct: Human TRPM4 (UniProtKB: Q8TD43-1) and mouse Trpm4 (UniProtKB: Q7TN37-1) were amplified via PCR; eGFP (C); expressed in transfected cells
T1 sequence (Q7TN37 whole entry): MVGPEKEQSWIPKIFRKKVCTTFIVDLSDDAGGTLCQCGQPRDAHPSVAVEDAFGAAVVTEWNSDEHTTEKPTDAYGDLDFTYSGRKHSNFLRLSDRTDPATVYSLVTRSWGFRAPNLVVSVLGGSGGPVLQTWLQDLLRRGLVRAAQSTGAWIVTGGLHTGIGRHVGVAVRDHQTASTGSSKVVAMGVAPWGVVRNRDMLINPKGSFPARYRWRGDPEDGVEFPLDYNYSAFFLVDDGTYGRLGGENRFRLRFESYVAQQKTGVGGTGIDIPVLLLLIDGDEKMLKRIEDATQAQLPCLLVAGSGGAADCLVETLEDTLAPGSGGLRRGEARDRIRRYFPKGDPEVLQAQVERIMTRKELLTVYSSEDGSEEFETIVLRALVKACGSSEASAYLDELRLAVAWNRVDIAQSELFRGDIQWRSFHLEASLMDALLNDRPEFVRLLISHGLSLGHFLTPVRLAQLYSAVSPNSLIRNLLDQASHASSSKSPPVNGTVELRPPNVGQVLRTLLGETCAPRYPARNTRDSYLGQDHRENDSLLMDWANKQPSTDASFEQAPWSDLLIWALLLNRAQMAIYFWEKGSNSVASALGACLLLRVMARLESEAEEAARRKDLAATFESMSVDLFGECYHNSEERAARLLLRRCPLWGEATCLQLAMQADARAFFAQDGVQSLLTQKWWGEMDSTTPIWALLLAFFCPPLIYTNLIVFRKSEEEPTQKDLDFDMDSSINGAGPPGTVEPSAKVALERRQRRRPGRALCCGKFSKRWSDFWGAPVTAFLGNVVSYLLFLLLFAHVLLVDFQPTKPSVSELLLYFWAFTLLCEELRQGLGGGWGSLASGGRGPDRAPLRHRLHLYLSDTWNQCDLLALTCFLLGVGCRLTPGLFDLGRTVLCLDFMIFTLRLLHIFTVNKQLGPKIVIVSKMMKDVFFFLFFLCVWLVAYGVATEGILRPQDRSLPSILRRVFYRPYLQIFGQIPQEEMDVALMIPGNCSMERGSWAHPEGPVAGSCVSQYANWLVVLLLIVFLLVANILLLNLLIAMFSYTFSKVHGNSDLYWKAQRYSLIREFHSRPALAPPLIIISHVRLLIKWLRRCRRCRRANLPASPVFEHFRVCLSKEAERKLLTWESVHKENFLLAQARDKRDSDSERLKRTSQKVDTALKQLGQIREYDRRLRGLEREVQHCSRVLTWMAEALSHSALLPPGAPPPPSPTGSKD
The experiment in a line: Inside-out patch clamp, mouse TRPM4. To be noted: inside-out patch clamp configuration. It is filed as cell-based. For orientation: The patch-clamp technique gives a direct electrical read-out from membranes.

Data set [3] has as its target hsTRPM4 L907A, S924A and L907A/S924A mutants (Homo sapiens, UniProt Q8TD43, L907A/S924A). In words: Whole-cell patch clamp of wild-type and binding-site mutant hsTRPM4. As to conditions: whole-cell voltage clamp.
Source text: (§1) Initially, we assessed the basic properties of the hsTRPM4 mutants using whole-cell patch clamp electrophysiology.
Data set [4] has as its system hsTRPM4 L907A, S924A and L907A/S924A mutants. Described as above. To be noted: whole-cell voltage clamp, HEK293T.
Source text: as §1
Data set [5] addresses T2, human TRPM4 (Homo sapiens, UniProt Q8TD43). The experiment in a line: Inside-out patch clamp, human TRPM4. In kind it is cell-based. On the set-up: Human TRPM4 (UniProtKB: Q8TD43-1) and mouse Trpm4 (UniProtKB: Q7TN37-1) were amplified via PCR; expressed in transfected cells. As to conditions: inside-out patch clamp configuration. Here is the method:
Patch clamp recordings were conducted using an EPC10 patch clamp amplifier and Patchmaster software (HEKA, Germany). An Ag/AgCl wire served as the reference electrode in all experiments. […] Liquid junction potential was compensated before achieving gigaseal formation. All experiments were conducted at room temperature. Whole-cell currents were recorded in transiently transfected HEK293 cells expressing either wildtype human TRPM4, TRPM4-L907A, or TRPM4-S924A. Recordings involved a 400 ms increasing voltage ramp from –100 mV to +100 mV, initiated from a holding potential of 0 mV. The interval between each sweep was 2 seconds, with data sampled at 5 kHz. […] To identify TRPM4 currents, extracellular Na^+ was replaced with equimolar NMDG^+. […] Similar to whole-cell recordings, a 400 ms increasing voltage ramp from –100 mV to +100 mV was applied from a holding potential of 0 mV. The interval between sweeps was 2 seconds, and data were sampled at 5 kHz. […] TRPM4 currents were activated by 500 μM CaCl2 and deactivated by 10 mM EGTA, both added to the intracellular solution. Ca^2+ activation curves were fitted using a likelihood maximization algorithm to estimate the parameters for the sigmoidal fitting curves y-maximum, slope and midpoint as part of the R package sicegar (V0.2.4).

The subject of data set [6] is primary mouse neuronal cultures. The experiment in a line: TMRE assay of mitochondrial membrane potential after glutamate. It is filed as cell-based. As to conditions: 50 μM glutamate for 2 h, compound 30 min before. Here is the method:
We assessed its ability to inhibit the deterioration of mitochondrial membrane potential (ΔΨm) in response to glutamate-induced excitotoxicity. The ratio between the ΔΨm-dependent dye tetramethylrhodamine ethyl ester (TMRE) and the mitochondrial dye MitoTracker was quantified for this purpose.
Subsequently 50 μM glutamate was applied for in total 2 hours. Then, 20 nM TMRE dye (Abcam, ab113852), 500 nM MitoTracker dye (ThermoFisher, M7512), and 1 μM Hoechst 33342 were added after 1.5 hours glutamate stimulation for 30 minutes. Afterwards cells were washed two times in pre-warmed medium and were imaged immediately in preconditioned medium using a confocal microscope (Zeiss, LSM700) with 20-fold magnification and controlled atmosphere conditions (37°C, 5% CO2). Imaging time was less than 10 minutes per condition. We quantified the total MFI of the MitoTracker and TMRE dyes per cell. At least 50 cells per condition were quantified and the mean ratios of TMRE to Mitotracker per independent experiments were reported.

For data set [7] the test system is unchanged. In words: Glutamate-induced excitotoxicity assay (RealTime-Glo viability). In kind it is cell-based. To be noted: 5 μM. Here is the method:
To evaluate the in vitro efficacy of our developed compounds, we employed primary mouse neuronal cultures (PNCs) and conducted glutamate-induced excitotoxicity assays. Cultures were pre-treated with respective Series 1 and Series 3 compounds before glutamate exposure, and neuronal viability was assessed 15 h post-stimulation with glutamate.
Figure 3 Neuroprotective in vitro evaluation and in vivo pharmacokinetics (A) In vitro evaluation of compound activity on glutamate-induced excitotoxicity in mature primary neuronal cultures. Neuronal cultures were treated with 5 μM of the specified compound or vehicle control 5 h prior to glutamate stimulation, assessing compound rescue activity and toxicity relative to minimal (Vehicle +0 μM Glu) and maximal (Vehicle +50 μM Glu) excitotoxicity. Time course of a representative compound with virtual endpoint at 15 h post stimulation and assay window definition (left). Toxicity of compound treated cultures with and without glutamate stimulation (right). Data are represented as mean and 95% confidence interval; n ≥ 4; ∗p < 0.05, ∗∗p < 0.01, ∗∗∗p < 0.001; One-sample Wilcoxon signed-rank test. […] Mitochondrial membrane potential was measured by the mean fluorescence intensity of TMRE normalized to MitoTracker. Data are represented as mean ± SEM; n = 5; paired t-test. (C) In vivo pharmacokinetics of four selected compounds. Time course of compound concentration in the brain, heart, and plasma after a single dose via intraperitoneal (i.p.) or intravenous (i.v.) application. Data are represented as mean ± SEM. Half-life estimates by non-compartmental analysis are shown as vertical line and IC50 value as dashed horizontal line. (D) Compound concentration in the brain relative to respective IC50 concentrations after a single dose via intra-peritoneal or intra-venous routes. Also see Figure S6.
Excitotoxicity assays were performed using primary mouse neuronal cultures between 14 and 17 days in vitro (DIV). Cell viability was measured using RealTime-Glo MT Cell Viability Assay (Promega, catalog no. G9711) according to the manufacture protocol. Compounds were co-administered with RealTime-Glo reagents, and luciferase measurements were conducted using the Tecan-Spark M10 microplate reader with environmental control set to 37°C and 5% CO2. Neuronal cultures were stimulated with either glutamate or vehicle five hours after compound application and monitored for an additional 20 hours. To adjust for inter-well variability, arbitrary light units were normalized to a steady signal prior to glutamate addition for each well. Toxicity was calculated relative to the minimal cell viability at 15 hours post glutamate stimulation and cell viability of the PBS vehicle control.

For data set [8], the target named is T2, human TRPM4. The experiment in a line: QPatch automated patch clamp on TRPM4-expressing HEK293 cells. In kind it is cell-based. As to conditions: hsTRPM4-expressing HEK293 cells. Here is the method: QPatchHTX, an automated electrophysiology platform, was used in single hole mode. One day before use human TRPM4- or TRPM5-expressing HEK293 cells were seeded in a T75 flask at a density of 53k cells per cm^2 and at passages < 23. […] The extracellular solution was (in mM): CaCl2 (7), MgCl2 (2), KCl (5), HEPES (10), NaCl (70), NMDG (70); pH 7.4 with NaOH. The intracellular solution was (in mM): HEPES (10), NMDG (100), NaCl (50), EGTA (20), MgCl2 (1), CaCl2 (21); pH 7.2 with HCl. […] This protocol was repeated every 7 seconds. […] FFA was used as reference compound and applied cumulatively with each concentration incubating at a minimum of 20 voltage protocol runs (140 seconds) with the current after addition of FFA being calculated as full block. […] Each compound was measured at least 3 time independently.

“Also recorded” adds a separate entry of the source. Like-named read-outs stand apart in the source and are kept apart here.

T2 sequence (Q8TD43 whole entry): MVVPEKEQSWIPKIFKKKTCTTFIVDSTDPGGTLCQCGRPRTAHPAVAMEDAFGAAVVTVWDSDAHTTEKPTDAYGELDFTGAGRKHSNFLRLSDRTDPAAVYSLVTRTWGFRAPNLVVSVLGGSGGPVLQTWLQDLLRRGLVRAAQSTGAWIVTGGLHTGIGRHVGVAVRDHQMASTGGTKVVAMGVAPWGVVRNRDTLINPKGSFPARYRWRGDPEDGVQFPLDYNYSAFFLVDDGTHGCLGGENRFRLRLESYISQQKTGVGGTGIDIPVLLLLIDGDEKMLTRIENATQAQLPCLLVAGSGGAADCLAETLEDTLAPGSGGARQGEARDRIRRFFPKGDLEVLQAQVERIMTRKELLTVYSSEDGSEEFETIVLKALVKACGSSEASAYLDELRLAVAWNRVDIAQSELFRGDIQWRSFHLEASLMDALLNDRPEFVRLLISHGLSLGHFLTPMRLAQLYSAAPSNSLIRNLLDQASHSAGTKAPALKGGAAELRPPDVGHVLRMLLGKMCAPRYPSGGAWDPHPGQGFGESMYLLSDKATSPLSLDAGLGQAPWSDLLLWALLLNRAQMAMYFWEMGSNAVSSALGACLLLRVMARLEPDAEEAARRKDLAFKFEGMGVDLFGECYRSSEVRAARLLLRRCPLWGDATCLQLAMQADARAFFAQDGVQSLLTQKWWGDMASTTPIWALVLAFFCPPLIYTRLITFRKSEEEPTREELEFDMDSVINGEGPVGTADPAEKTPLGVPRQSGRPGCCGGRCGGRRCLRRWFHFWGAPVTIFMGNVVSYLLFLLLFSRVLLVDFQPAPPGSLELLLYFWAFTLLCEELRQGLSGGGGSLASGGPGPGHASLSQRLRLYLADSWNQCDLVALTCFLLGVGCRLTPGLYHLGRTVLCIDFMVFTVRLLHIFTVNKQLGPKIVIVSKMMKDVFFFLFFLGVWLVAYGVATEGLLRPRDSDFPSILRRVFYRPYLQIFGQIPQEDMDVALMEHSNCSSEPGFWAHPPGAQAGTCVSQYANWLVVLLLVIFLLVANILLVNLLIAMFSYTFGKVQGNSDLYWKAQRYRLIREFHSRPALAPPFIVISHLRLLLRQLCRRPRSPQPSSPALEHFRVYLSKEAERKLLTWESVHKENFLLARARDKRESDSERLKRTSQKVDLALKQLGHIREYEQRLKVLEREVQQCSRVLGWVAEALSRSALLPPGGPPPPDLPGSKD
Sequence of hsTRPM4 L907A, S924A and L907A/S924A mutants (Homo sapiens, UniProt Q8TD43, L907A/S924A) (Q8TD43 whole entry L907A/S924A): as the sequence (Q8TD43 whole entry) above, with L907A, S924A counted along it

Regarding `O=C(CCc1ccccc1)Nc1ccc(Br)cc1C(=O)O` [CMP233], in [1], the “Off-target binding in in vitro pharmacology panel” value was “no off-target binding”. In addition, the half-life in [2] (brain, ip, read-out: Brain half-life (converted)) is 84 min; in [2] (brain, iv, read-out: Brain half-life (converted)) it was 18 min; in data set [2] (heart, ip, read-out: Heart half-life (converted)) it was 66 min; in data set [2] (heart, iv, read-out: Heart half-life (converted)), 78 min; in data set [2] (plasma, ip, read-out: Plasma half-life (converted)) it was 54 min; in [2] (plasma, iv, read-out: Plasma half-life (converted)), 30 min. The “Activity on mouse TRPM4” value at mouse TRPM4 was “highly effective in both species; also recorded: active on both species”. Further, in data set [3], the “Affinity in the L907A/S924A double mutant” value is on record as “completely abolished”. Moreover, in [4], the “Current inhibition of hsTRPM4 L907A and S924A mutants versus wildtype” value is “significantly reduced current inhibition in at least one hsTRPM4 mutant variant”. For the same molecule, on human TRPM4 [5], the “Activity on human TRPM4” value is “highly effective in both species; also recorded: active on both species”.
Regarding `COc1cccc(-c2ccccc2NCc2nc3ccccc3o2)c1` [CMP312], in data set [6], the “Mitochondrial membrane potential (ΔΨm), TMRE / MitoTracker ratio” value is reported as “mitigated the glutamate-induced decrease in ΔΨm”. The “Protective effect in excitotoxicity assay” value in data set [7] (glutamate-stimulated primary mouse neuronal cultures) is on record as “potent protective effects”. Also, the “Compound toxicity in neuronal cultures” value in data set [7] (primary mouse neuronal cultures) was “non-toxicity”. The IC50 at human TRPM4 [8] is 4.87 µM. Also, the “Activity on mouse TRPM4” value at mouse TRPM4 was “reduced activity on mouse TRPM4 compared to human TRPM4; also recorded: significantly less effective on mouse TRPM4”. Also, the “Affinity in the L907A/S924A double mutant” value in data set [3] is on record as “completely abolished”. In addition, the “Current inhibition of hsTRPM4 L907A and S924A mutants versus wildtype” value in [4] is “significantly reduced current inhibition in at least one hsTRPM4 mutant variant”. Moreover, the “Activity on human TRPM4” value at human TRPM4 [5] is “almost completely blocked”.

As a reminder, the half-life is how long it takes for the measured level to halve. By IC50 is commonly meant the concentration needed to halve the response being measured. A low value points to higher potency.
